Our source for the T/C values is PubChem BioAssay AID256 (DTP/NCI, 2004).

In the assay the test system is CD2F1 mice, L1210 leukemia ip, survival T/C. Nature of the assay: NCI In Vivo Anticancer Drug Screen. Data for tumor model L1210 Leukemia (intraperitoneal) in CD2F1 (CDF1) mice. The conditions noted are these: higher = longer survival. In short, it runs like this: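 Compound-dosed mice with transplantable tumor versus matched vehicle controls; endpoint ratio T/C reported.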

The mark [1] stands for this setting: endpoint: mean survival time, dose: 100.0 mg/kg/injection, schedule: Q04DX003 (ip), vehicle: saline with Tween-80.
Setting [2] is: endpoint: mean survival time, dose: 200.0 mg/kg/injection, schedule: Q04DX003 (ip), vehicle: saline with Tween-80.
Setting [3] is: endpoint: mean survival time, dose: 400.0 mg/kg/injection, schedule: Q04DX003 (ip), vehicle: saline with Tween-80.
The mark [4] stands for this setting: endpoint: mean survival time, dose: 50.0 mg/kg/injection, schedule: Q01DX001 (ip), vehicle: saline.
Setting [5] is: endpoint: mean survival time, dose: 100.0 mg/kg/injection, schedule: Q01DX001 (ip), vehicle: saline.
[6] abbreviates: endpoint: mean survival time, dose: 100.0 mg/kg/injection, schedule: Q01DX009 (ip), vehicle: saline.
Where [7] appears, read: endpoint: mean survival time, dose: 200.0 mg/kg/injection, schedule: Q01DX009 (ip), vehicle: saline.
[8] abbreviates: endpoint: mean survival time, dose: 100.0 mg/kg/injection, schedule: Q01DX009 (ip), vehicle: saline with Tween-80.
The mark [9] stands for this setting: endpoint: mean survival time, dose: 200.0 mg/kg/injection, schedule: Q01DX009 (ip), vehicle: saline with Tween-80.
Setting [10] is: endpoint: mean survival time, dose: 400.0 mg/kg/injection, schedule: Q01DX009 (ip), vehicle: saline with Tween-80.

“And” between values parts separate entries of the source, which are not always exact repeats. Identical values can stand only once. Inconclusive results and toxic doses are left out.

For the molecule `[Br][Pt+2][Br].[NH-]c1ccccc1F.[NH-]c1ccccc1F`, the T/C is, setting by setting: (endpoint: mean survival time, dose: 3.13 mg/kg/injection, schedule: Q04DX003 (ip), vehicle: distilled water + Tween-80) 104 % of control; (endpoint: mean survival time, dose: 6.25 mg/kg/injection, schedule: Q04DX003 (ip), vehicle: distilled water + Tween-80) 104 % of control; (endpoint: mean survival time, dose: 12.5 mg/kg/injection, schedule: Q04DX003 (ip), vehicle: distilled water + Tween-80) 108 % of control; (endpoint: mean survival time, dose: 25.0 mg/kg/injection, schedule: Q04DX003 (ip), vehicle: distilled water + Tween-80) 108 % of control; (endpoint: mean survival time, dose: 50.0 mg/kg/injection, schedule: Q04DX003 (ip), vehicle: distilled water + Tween-80) 101 % of control; (endpoint: mean survival time, dose: 100.0 mg/kg/injection, schedule: Q04DX003 (ip), vehicle: distilled water + Tween-80) 93 % of control.
For `O=S(c1ccccc1)C1OC12CCCCC2` (centres undefined), the T/C runs as follows: under setting [1], 97 % of control; under setting [2], 98 % of control; under setting [3], 97 % of control.
Turning to `O=C1OC2CC3CCC2C13` (centres undefined), the T/C (endpoint: mean survival time, dose: 6.25 mg/kg/injection, schedule: Q01DX009 (ip), vehicle: saline) was 101 % of control; the T/C (endpoint: mean survival time, dose: 12.5 mg/kg/injection, schedule: Q01DX009 (ip), vehicle: saline) is 101 % of control; the T/C (endpoint: mean survival time, dose: 25.0 mg/kg/injection, schedule: Q01DX009 (ip), vehicle: saline) was 95 % of control.
For the molecule `Nc1ncnc2nc(SCc3ccccc3)[nH]c12`, the T/C is 112 % of control (endpoint: mean survival time, dose: 12.5 mg/kg/injection, schedule: Q01DX009 (ip), vehicle: Klucel (hydroxypropylcellulose) (HPC)); 104 % of control (endpoint: mean survival time, dose: 25.0 mg/kg/injection, schedule: Q01DX009 (ip), vehicle: Klucel (hydroxypropylcellulose) (HPC)); 100 % of control (endpoint: mean survival time, dose: 50.0 mg/kg/injection, schedule: Q01DX009 (ip), vehicle: Klucel (hydroxypropylcellulose) (HPC)); 90 % of control (endpoint: mean survival time, dose: 100.0 mg/kg/injection, schedule: Q01DX001 (ip), vehicle: Klucel (hydroxypropylcellulose) (HPC)).
As to `CCCCCCCCCCOc1ccc(/C=N\N=C\c2ccc(OCCCCCCCCCC)cc2)cc1`, the T/C by setting is: under setting [1], 94 % of control; under setting [2], 94 % of control; under setting [3], 92 % of control.
`O=C(O)C(=O)O.[Co].[NH-]CC[NH-].[NH-]CC[NH-]`: the T/C (endpoint: mean survival time, dose: 100.0 mg/kg/injection, schedule: Q04DX002 (ip), vehicle: saline) is 98 % of control.
For the molecule `O=[N+]([O-])/C=C\c1ccc2c(c1)OCO2`, the T/C is 101 % of control under setting [1], 93 % of control under setting [2] and 90 % of control under setting [3].
As for `Oc1cc(O)c2c(c1)OC(c1ccc(O)c(O)c1)C(OC1(c3cc(O)c(O)c(O)c3)Oc3cc(O)cc(O)c3C(O)C1O)C2` (centres undefined), the T/C reads like this: (endpoint: mean survival time, dose: 100.0 mg/kg/injection, schedule: Q04DX003 (ip), vehicle: saline) 109 % of control; (endpoint: mean survival time, dose: 200.0 mg/kg/injection, schedule: Q04DX003 (ip), vehicle: saline) 95 % of control; (endpoint: mean survival time, dose: 400.0 mg/kg/injection, schedule: Q04DX003 (ip), vehicle: saline) 107 % of control.
In the case of `COc1ccc(NC(=O)Nc2ccc(Cl)cc2OC)cc1`, the T/C by setting is: (endpoint: mean survival time, dose: 200.0 mg/kg/injection, schedule: Q04DX002 (ip), vehicle: saline with Tween-80) 93 % of control; (endpoint: mean survival time, dose: 400.0 mg/kg/injection, schedule: Q04DX002 (ip), vehicle: saline with Tween-80) 90 % of control.
As to `COC(CNCCO)c1ccccc1` (centres undefined), the T/C (endpoint: mean survival time, dose: 25.0 mg/kg/injection, schedule: Q01DX001 (ip), vehicle: saline) was 97 % of control; the T/C under setting [4] is 101 % of control; the T/C under setting [5] was 100 % of control and 106 % of control.
For the molecule `CC(=O)Oc1ccc2c3c(cccc13)CC2`, the T/C under setting [1] is 98 % of control, the T/C under setting [2] was 98 % of control and the T/C under setting [3] is 98 % of control.
Turning to `CC(C)(C)c1cccc(C(C)(C)C)c1O`, the T/C is, setting by setting: under setting [6], 95 % of control; under setting [7], 94 % of control; (endpoint: mean survival time, dose: 400.0 mg/kg/injection, schedule: Q01DX009 (ip), vehicle: saline) 106 % of control.
In the case of `CCc1ccc(C(C)(C)C)cc1`, the T/C runs as follows: under setting [1], 99 % of control; under setting [2], 105 % of control.
As for `O=c1c2ccc(Cl)cc2[nH]c(=S)n1-c1ccc(Cl)cc1`, the T/C was 104 % of control under setting [1], 93 % of control under setting [2] and 102 % of control under setting [3].
With `O=C(c1ccc(O)cc1O)c1ccc(O)cc1O`, the T/C was 104 % of control (endpoint: mean survival time, dose: 50.0 mg/kg/injection, schedule: Q01DX009 (ip), vehicle: saline); 96 % of control under setting [6]; 93 % of control under setting [7].
With `CON=C(/C=C\c1ccccc1)/C=C/c1ccccc1`, the T/C by setting is: (endpoint: mean survival time, dose: 100.0 mg/kg/injection, schedule: Q01DX001 (ip), vehicle: saline with Tween-80) 102 % of control; under setting [8], 103 % of control; (endpoint: mean survival time, dose: 200.0 mg/kg/injection, schedule: Q01DX001 (ip), vehicle: saline with Tween-80) 98 % of control; under setting [9], 101 % of control; (endpoint: mean survival time, dose: 400.0 mg/kg/injection, schedule: Q01DX001 (ip), vehicle: saline with Tween-80) 93 % of control; under setting [10], 97 % of control.
`COc1cccc(/C=N/[N+](C)(C)C)c1O`: the T/C was 107 % of control under setting [4]; 101 % of control under setting [5]; 97 % of control (endpoint: mean survival time, dose: 200.0 mg/kg/injection, schedule: Q01DX001 (ip), vehicle: saline).
With `Clc1cccc(Cl)c1C(Nc1nncs1)Nc1nncs1`, the T/C (endpoint: median survival time, dose: 25.0 mg/kg/injection, schedule: Q01DX005 (ip), vehicle: saline with Tween-80) is 113 % of control; the T/C (endpoint: median survival time, dose: 144.0 mg/kg/injection, schedule: Q01DX005 (ip), vehicle: saline with Tween-80) was 151 % of control; the T/C (endpoint: median survival time, dose: 240.0 mg/kg/injection, schedule: Q01DX005 (ip), vehicle: saline with Tween-80) was 171 % of control; the T/C (endpoint: median survival time, dose: 400.0 mg/kg/injection, schedule: Q01DX005 (ip), vehicle: saline with Tween-80) was 192 % of control and 223 % of control.
Regarding `CC(C)(CCC(C)(C)c1ccccc1)c1ccccc1`, the T/C (endpoint: mean survival time, dose: 50.0 mg/kg/injection, schedule: Q01DX009 (ip), vehicle: saline with Tween-80) is 96 % of control; the T/C under setting [8] was 96 % of control; the T/C under setting [9] was 96 % of control.
In the case of `COc1cc(Cl)ccc1NC(=O)OCCOc1cc(OC)c(Cl)c(OC)c1`, the T/C is, setting by setting: under setting [8], 101 % of control; under setting [9], 103 % of control; under setting [10], 101 % of control.
